Results reported in US11000033B2, “Ketone or oxime compound, and herbicide” (NISSAN CHEMICAL CORPORATION, priority 2014, dated 2021).

Columns and labels:
Assay type in all cases: in vivo
Scirpus juncoides = experiment: Test Example 1: herbicidal activity, application before weed generation in submerged conditions (symbol B); conditions: application herbicide amount 320 g/ha
Outline: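 Paddy pre-emergence test. Formulated emulsion, water-diluted to a predetermined rate, is applied to floodwater on sowing day; rice transplanted at 2.5 leaves. Effect read at 3 weeks on a 0–5 herbicidal-ratio scale.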

[1] = tested on: Echinochloa crus-galli var. crus-galli; experiment: Test Example 3: herbicidal effect by foliage application, Wagner pot (symbol H); conditions: application herbicide amount 320 g/ha
Outline: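 Alluvial soil was flooded to a depth of 0.1–0.5 cm, seeded with the weeds and rice, and kept in a greenhouse at 25–30 °C. After 14 days of growth, the foliage received a small-sprayer application of emulsion diluted to the intended rate; injury was rated at 3 weeks.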

Setaria viridis = experiment: Test Example 4: herbicidal effect by soil treatment (symbol G); conditions: for G (Setaria viridis) herbicidal effect grade: application herbicide amount 320 g/ha
Outline: (§1)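 Seeds were sown in sterilized diluvial soil, covered with about 1.5 cm of soil, and the soil surface was sprayed with a water-diluted emulsion of the compound at a predetermined rate. Plants grew in a greenhouse at 25° C. to 30° C.; effects were scored visually 3 weeks after application.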

[2] = tested on: Echinochloa crus-galli var. crus-galli; experiment: Test Example 4: herbicidal effect by soil treatment (symbol H); conditions: for H (Echinochloa crus-galli var. crus-galli) herbicidal effect grade: application herbicide amount 320 g/ha
Outline: as §1

Alopecurus myosuroides = experiment: Test Example 4: herbicidal effect by soil treatment (symbol J); conditions: for J (Alopecurus myosuroides) herbicidal effect grade: application herbicide amount 320 g/ha
Outline: as §1

Lolium multiflorum Lam. = experiment: Test Example 4: herbicidal effect by soil treatment (symbol K); conditions: for K (Lolium multiflorum Lam.) herbicidal effect grade: application herbicide amount 320 g/ha
Outline: as §1

Stellaria media = experiment: Test Example 4: herbicidal effect by soil treatment (symbol P); conditions: for P (Stellaria media) herbicidal effect grade: application herbicide amount 320 g/ha
Outline: as §1

corn [3] = experiment: Test Example 4: effect on crop by soil treatment (symbol c); conditions: for c (corn) effect on crop grade: application herbicide amount 320 g/ha
Outline: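 The test used sterilized diluvial soil. Seed was set down in spots and overlaid with about 1.5 cm of soil before growth in a greenhouse kept at 25° C. to 30° C.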

rice = experiment: Test Example 4: effect on crop by soil treatment (symbol b); conditions: for b (directly sowed rice plant) effect on crop grade: application herbicide amount 320 g/ha
Outline: (§2)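 Steps: fill box with sterilized diluvial soil; sow seed spot-like; cover with ~1.5 cm soil; grow in greenhouse (25° C. to 30° C.).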

wheat [4] = experiment: Test Example 4: effect on crop by soil treatment (symbol e); conditions: for e (wheat) effect on crop grade: application herbicide amount 320 g/ha
Outline: as §2

Digitaria ciliaris = experiment: Test Example 5: herbicidal effect by foliage application, plastic box (symbol F); conditions: 320 g/ha, 3 weeks after application
Outline: (§3)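 Sowing in sterilized diluvial soil, 14 days' greenhouse growth at 25° C. to 30° C., then uniform small-sprayer foliar application of aqueous emulsion dilution; plants scored three weeks afterwards.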

Apera spica-venti = experiment: Test Example 5: herbicidal effect by foliage application, plastic box (symbol L); conditions: 320 g/ha, 3 weeks after application
Outline: as §3

Veronica persica = experiment: Test Example 5: herbicidal effect by foliage application, plastic box (symbol R); conditions: 320 g/ha, 3 weeks after application
Outline: as §3

corn [5] = experiment: Test Example 5: effect on crop by foliage application, plastic box (symbol c); conditions: 320 g/ha, 3 weeks after application
Outline: (§4)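 Crop seed is sown alongside grass and broadleaf weed species in spots in sterilized diluvial soil, then covered to a depth of about 1.5 cm. Plants grow in a greenhouse kept at 25° C. to 30° C.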

soybean = experiment: Test Example 5: effect on crop by foliage application, plastic box (symbol d); conditions: 320 g/ha, 3 weeks after application
Outline: as §4

wheat [6] = experiment: Test Example 5: effect on crop by foliage application, plastic box (symbol e); conditions: 320 g/ha, 3 weeks after application
Outline: as §4

rapeseed = experiment: Test Example 5: effect on crop by foliage application, plastic box (symbol g); conditions: 320 g/ha, 3 weeks after application
Outline: as §4

Row | Compound | Herbicidal effect grade, B: Scirpus juncoides (Scirpus juncoides) | herbicidal effect on H (Echinochloa crus-galli var. crus-galli), grade 0-5 [1] | G (Setaria viridis) herbicidal effect grade (Setaria viridis) | H (Echinochloa crus-galli var. crus-galli) herbicidal effect grade [2] | J (Alopecurus myosuroides) herbicidal effect grade (Alopecurus myosuroides) | K (Lolium multiflorum Lam.) herbicidal effect grade (Lolium multiflorum Lam.) | P (Stellaria media) herbicidal effect grade (Stellaria media) | c (corn) effect on crop grade (corn [3]) | b (directly sowed rice plant) effect on crop grade (rice) | e (wheat) effect on crop grade (wheat [4]) | F: Digitaria ciliaris, herbicidal effect grade (Digitaria ciliaris) | L: Apera spica-venti, herbicidal effect grade (Apera spica-venti) | R: Veronica persica, herbicidal effect grade (Veronica persica) | c: corn, effect on crop grade (corn [5]) | d: soybean, effect on crop grade (soybean) | e: wheat, effect on crop grade (wheat [6]) | g: rapeseed, effect on crop grade (rapeseed) | other results
1 | CCON=C(C)CC1CC(O)=C(c2c(C)cc(C)cc2C)C1=O (centres unmarked) [1-003] | 4 (Herbicidal ratio of 70% or higher and lower than 90%) | 5 (Herbicidal ratio of 90% or more (almost completely withered)) | 3 (Herbicidal ratio of 40% or higher and lower than 70%) | 5 (Herbicidal ratio of 90% or more (almost completely withered)) | 5 (Herbicidal ratio of 90% or more (almost completely withered)) | 5 (Herbicidal ratio of 90% or more (almost completely withered)) | 3 (Herbicidal ratio of 40% or higher and lower than 70%) | 5 (Herbicidal ratio of 90% or more (almost completely withered)) | 5 (Herbicidal ratio of 90% or more (almost completely withered)) | 5 (Herbicidal ratio of 90% or more (almost completely withered)) | 5 (Herbicidal ratio of 90% or more (almost completely withered)) | 5 (Herbicidal ratio of 90% or more (almost completely withered)) | 3 (Herbicidal ratio of 40% or higher and lower than 70%) | 5 (Herbicidal ratio of 90% or more (almost completely withered)) | 3 (Herbicidal ratio of 40% or higher and lower than 70%) | 5 (Herbicidal ratio of 90% or more (almost completely withered)) | 4 (Herbicidal ratio of 70% or higher and lower than 90%) | –
2 | CON=C(C)CC1CC(OC(=O)COc2ccc(OC)cc2)=C(c2c(C)cc(C)cc2C)C1=O (centres unmarked) [1-069] | 4 (Herbicidal ratio of 70% or higher and lower than 90%) | 5 (Herbicidal ratio of 90% or more (almost completely withered)) | 4 (Herbicidal ratio of 70% or higher and lower than 90%) | 5 (Herbicidal ratio of 90% or more (almost completely withered)) | 5 (Herbicidal ratio of 90% or more (almost completely withered)) | 5 (Herbicidal ratio of 90% or more (almost completely withered)) | 0 (Herbicidal ratio of 5% or lower (almost no effect)) | 5 (Herbicidal ratio of 90% or more (almost completely withered)) | 5 (Herbicidal ratio of 90% or more (almost completely withered)) | 4 (Herbicidal ratio of 70% or higher and lower than 90%) | 5 (Herbicidal ratio of 90% or more (almost completely withered)) | 5 (Herbicidal ratio of 90% or more (almost completely withered)) | 3 (Herbicidal ratio of 40% or higher and lower than 70%) | 3 (Herbicidal ratio of 40% or higher and lower than 70%) | 4 (Herbicidal ratio of 70% or higher and lower than 90%) | 5 (Herbicidal ratio of 90% or more (almost completely withered)) | 4 (Herbicidal ratio of 70% or higher and lower than 90%) | –
3 | CON=C(CC1CC(O)=C(c2c(C)cc(C)cc2C)C1=O)C1CCCC1 (centres unmarked) [1-078] | 2 (Herbicidal ratio of 20% or higher and lower than 40%) | 5 (Herbicidal ratio of 90% or more (almost completely withered)) | – | – | – | – | – | – | – | – | – | – | – | – | – | – | – | G: Setaria viridis, herbicidal effect grade (Setaria viridis; 320 g/ha): 5 (Herbicidal ratio of 90% or more (almost completely withered)); H: Echinochloa crus-galli var. crus-galli, herbicidal effect grade ([2]; 320 g/ha): 2 (Herbicidal ratio of 20% or higher and lower than 40%); J: Alopecurus myosuroides, herbicidal effect grade (Alopecurus myosuroides; 320 g/ha): 3 (Herbicidal ratio of 40% or higher and lower than 70%); K: Lolium multiflorum Lam., herbicidal effect grade (Lolium multiflorum Lam.; 320 g/ha): 5 (Herbicidal ratio of 90% or more (almost completely withered)); P: Stellaria media, herbicidal effect grade (Stellaria media; 320 g/ha): 0 (Herbicidal ratio of 5% or lower (almost no effect)); c: corn, effect grade on crop (corn [3]; 320 g/ha): 4 (Herbicidal ratio of 70% or higher and lower than 90%); b: directly sowed rice plant, effect grade on crop (rice; 320 g/ha): 5 (Herbicidal ratio of 90% or more (almost completely withered)); e: wheat, effect grade on crop (wheat [4]; 320 g/ha): 0 (Herbicidal ratio of 5% or lower (almost no effect)); F: Digitaria ciliaris, herbicidal effect (criteria 0-5) (Digitaria ciliaris): 1 (Herbicidal ratio of 5% or higher and lower than 20%); L: Apera spica-venti, herbicidal effect (criteria 0-5) (Apera spica-venti): 3 (Herbicidal ratio of 40% or higher and lower than 70%); R: Veronica persica, herbicidal effect (criteria 0-5) (Veronica persica): 0 (Herbicidal ratio of 5% or lower (almost no effect)); c: corn, effect on crop (criteria 0-5) (corn [5]): 3 (Herbicidal ratio of 40% or higher and lower than 70%); d: soybean, effect on crop (criteria 0-5) (soybean): 0 (Herbicidal ratio of 5% or lower (almost no effect)); e: wheat, effect on crop (criteria 0-5) (wheat [6]): 0 (Herbicidal ratio of 5% or lower (almost no effect)); g: rapeseed, effect on crop (criteria 0-5) (rapeseed): 3 (Herbicidal ratio of 40% or higher and lower than 70%)
4 | CON=C(C)CC1CC(OC(=O)COc2ccc(C)cc2)=C(c2c(C)cc(C)cc2C)C1=O (centres unmarked) [1-072] | 4 (Herbicidal ratio of 70% or higher and lower than 90%) | 4 (Herbicidal ratio of 70% or higher and lower than 90%) | 5 (Herbicidal ratio of 90% or more (almost completely withered)) | 5 (Herbicidal ratio of 90% or more (almost completely withered)) | 5 (Herbicidal ratio of 90% or more (almost completely withered)) | 5 (Herbicidal ratio of 90% or more (almost completely withered)) | 0 (Herbicidal ratio of 5% or lower (almost no effect)) | 5 (Herbicidal ratio of 90% or more (almost completely withered)) | 5 (Herbicidal ratio of 90% or more (almost completely withered)) | 4 (Herbicidal ratio of 70% or higher and lower than 90%) | 5 (Herbicidal ratio of 90% or more (almost completely withered)) | 5 (Herbicidal ratio of 90% or more (almost completely withered)) | 3 (Herbicidal ratio of 40% or higher and lower than 70%) | 5 (Herbicidal ratio of 90% or more (almost completely withered)) | 2 (Herbicidal ratio of 20% or higher and lower than 40%) | 5 (Herbicidal ratio of 90% or more (almost completely withered)) | 4 (Herbicidal ratio of 70% or higher and lower than 90%) | –
